Test results published in patent US8664220B2, “Polycyclic compounds as lysophosphatidic acid receptor antagonists” (Amira Pharmaceuticals, Inc., priority 2009, dated 2014).

Molecular target: T1, human LPA1 (Homo sapiens, UniProt Q92633)
T1 construct: the full-length cDNA for human LPA1 was obtained by PCR of the reverse transcription reaction; expressed in transfected cells
Assay: LPA1 calcium flux assay
Type: cell-based
Conditions: human LPA1 expressing CHO cells, stimulated with 10 nM LPA; read-out: HLPA1 Ca Flux IC50
How it was run: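 CHO cells stably expressing human LPA1, serum-starved overnight and loaded with Calcium 4 dye in HBSS/20 mM Hepes/0.3% fatty-acid-free HSA, 1 h at 37 °C. Compounds pre-incubated 30 min at room temperature, then 10 nM LPA added; intracellular Ca2+ flux measured and IC50 from titration curves.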

T1 sequence (Q92633 whole entry): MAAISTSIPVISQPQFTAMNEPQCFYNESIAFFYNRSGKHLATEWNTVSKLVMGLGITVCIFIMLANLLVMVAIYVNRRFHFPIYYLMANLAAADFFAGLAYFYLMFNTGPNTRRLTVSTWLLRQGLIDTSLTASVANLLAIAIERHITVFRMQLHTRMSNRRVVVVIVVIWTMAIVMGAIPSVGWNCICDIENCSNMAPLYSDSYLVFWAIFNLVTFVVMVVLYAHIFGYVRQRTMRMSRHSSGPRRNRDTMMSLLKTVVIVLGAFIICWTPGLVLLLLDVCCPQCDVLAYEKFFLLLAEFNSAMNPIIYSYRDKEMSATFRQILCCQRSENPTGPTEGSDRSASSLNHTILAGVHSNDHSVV

Compound | IC50 [nM]
Cc1noc(-c2ccc(-c3ccc(C4(C(=O)O)CC4)cc3)cc2)c1Nc1ccnc(-c2ccccc2)c1 [Compound 1-111, 1-{4′-[3-Methyl-4-(2-phenyl-pyridin-4-ylamino)-isoxazol-5-yl]-biphenyl-4-yl}-cyclopropanecarboxylic acid] | 300 to 1000
Cc1noc(-c2ccc(-c3ccc(C4(C(=O)O)CC4)cc3)cc2)c1Nc1ccnc(-c2cccc(F)c2)c1 [Compound 1-112, 1-(4′-{4-[2-(3-Fluoro-phenyl)-pyridin-4-ylamino]-3-methyl-isoxazol-5-yl}-biphenyl-4-yl)-cyclopropanecarboxylic acid] | 1000 to 50000
Cc1noc(-c2ccc(-c3ccc(C4(C(=O)O)CC4)cc3)cc2)c1N(c1cccc(Cc2ccccc2)n1)c1cccc(Cc2ccccc2)n1 [Compound 1-120, 1-(4′-{4-[Bis-(6-benzyl-pyridin-2-yl)-amino]-3-methyl-isoxazol-5-yl}-biphenyl-4-yl)-cyclopropanecarboxylic acid] | 1000 to 50000
Cc1noc(-c2ccc(-c3ccc(C4(C(=O)O)CC4)cc3)cc2)c1NC(=O)c1cccc(-c2ccccc2CN(C)C)c1 [Compound 1-121, 1-(4′-{4-[(2′-Dimethylaminomethyl-biphenyl-3-carbonyl)-amino]-3-methyl-isoxazol-5-yl}-biphenyl-4-yl)-cyclopropanecarboxylic acid] | > 50000
Cc1noc(-c2ccc(-c3ccc(C4(C(=O)O)CC4)cc3)cc2)c1Nc1cccc(Sc2ccccc2)n1 [Compound 1-126, 1-{4′-[3-Methyl-4-(6-phenylsulfanyl-pyridin-2-ylamino)-isoxazol-5-yl]-biphenyl-4-yl}-cyclopropanecarboxylic acid] | < 300
Cc1noc(-c2ccc(-c3ccc(C4(C(=O)O)CC4)cc3)cc2)c1Nc1cccc([S+]([O-])c2ccccc2)n1 (stereo not drawn) [Compound 1-127, 1-{4′-[4-(6-Benzenesulfinyl-pyridin-2-ylamino)-3-methyl-isoxazol-5-yl]-biphenyl-4-yl}-cyclopropanecarboxylic acid] | < 300
Cc1noc(-c2ccc(-c3ccc(C4(C(=O)O)CC4)cc3)cc2)c1Nc1cccc(S(=O)(=O)c2ccccc2)n1 [Compound 1-128, 1-{4′-[4-(6-Benzenesulfonyl-pyridin-2-ylamino)-3-methyl-isoxazol-5-yl]-biphenyl-4-yl}-cyclopropanecarboxylic acid] | < 300
Cc1noc(-c2ccc(-c3ccc(C4(C(=O)O)CC4)cc3)cc2)c1C(O)c1cncc(-c2ccccc2)c1 (stereo not drawn) [Compound 1-129, 1-(4′-{4-[Hydroxy-(5-phenyl-pyridin-3-yl)-methyl]-3-methyl-isoxazol-5-yl}-biphenyl-4-yl)-cyclopropanecarboxylic acid] | < 300
Cc1noc(-c2ccc(-c3ccc(C4(C(=O)O)CC4)cc3)cc2)c1C(O)c1cncc(-c2cccc(C(F)(F)F)c2)c1 (stereo not drawn) [Compound 1-130, 1-[4′-(4-{Hydroxy-[5-(3-trifluoromethyl-phenyl)-pyridin-3-yl]-methyl}-3-methyl-isoxazol-5-yl)-biphenyl-4-yl]-cyclopropanecarboxylic acid] | < 300
Cc1noc(-c2ccc(-c3ccc(C4(C(=O)O)CC4)cc3)cc2)c1Nc1cccc(C#Cc2ccccc2)n1 [Compound 1-131, 1-{4′-[3-Methyl-4-(6-phenylethynyl-pyridin-2-ylamino)-isoxazol-5-yl]-biphenyl-4-yl}-cyclopropanecarboxylic acid] | < 300
Cc1noc(-c2ccc(-c3ccc(CCC(=O)O)cc3)cc2)c1Nc1cccc(-c2ccccc2)n1 [Compound 1-132, 3-{4′-[3-Methyl-4-(6-phenyl-pyridin-2-ylamino)-isoxazol-5-yl]-biphenyl-4-yl}-propionic acid] | < 300
Cc1noc(-c2ccc(-c3ccc(C(C)(C)C(=O)O)cc3)cc2)c1Nc1cccc(-c2ccccc2)n1 [Compound 1-133, 2-Methyl-2-{4′-[3-methyl-4-(6-phenyl-pyridin-2-ylamino)-isoxazol-5-yl]-biphenyl-4-yl}-propionic acid] | < 300
Cc1noc(-c2ccc(-c3ccc(C4(CC(=O)O)CC4)cc3)cc2)c1Nc1cccc(-c2ccccc2)n1 [Compound 1-134, (1-{4′-[3-Methyl-4-(6-phenyl-pyridin-2-ylamino)-isoxazol-5-yl]-biphenyl-4-yl}-cyclopropyl)-acetic acid] | < 300
Cc1noc(-c2ccc(-c3ccc(C4(C(=O)O)CC4)cc3)cc2)c1Nc1cccc(C#CC2CCCC2)n1 [Compound 1-135, 1-{4′-[4-(6-Cyclopentylethynyl-pyridin-2-ylamino)-3-methyl-isoxazol-5-yl]-biphenyl-4-yl}-cyclopropanecarboxylic acid] | 300 to 1000
Cc1noc(-c2ccc(-c3ccc(C4(C(=O)O)CC4)cc3)cc2)c1Nc1cccc(C(=O)N2CCCC2)n1 [Compound 1-136, 1-(4′-{3-Methyl-4-[6-(pyrrolidine-1-carbonyl)-pyridin-2-ylamino]-isoxazol-5-yl}-biphenyl-4-yl)-cyclopropanecarboxylic acid] | < 300
Cc1noc(-c2ccc(-c3ccc(C4(C(=O)O)CC4)cc3)cc2)c1Nc1cccc(C(=O)NC2CC2)n1 [Compound 1-137, 1-{4′-[4-(6-Cyclopropylcarbamoyl-pyridin-2-ylamino)-3-methyl-isoxazol-5-yl]-biphenyl-4-yl}-cyclopropanecarboxylic acid] | < 300
Cc1noc(-c2ccc(-c3ccc(C4(C(=O)O)CC4)cc3)cc2)c1Nc1cccc(OC2CCCCC2)n1 [Compound 1-138, 1-{4′-[4-(6-Cyclohexyloxy-pyridin-2-ylamino)-3-methyl-isoxazol-5-yl]-biphenyl-4-yl}-cyclopropanecarboxylic acid] | < 300
Cc1noc(-c2ccc(-c3ccc(C4(C(=O)O)CC4)cc3)cc2)c1Nc1cccc(OC2CCC2)n1 [Compound 1-139, 1-{4′-[4-(6-Cyclobutoxy-pyridin-2-ylamino)-3-methyl-isoxazol-5-yl]-biphenyl-4-yl}-cyclopropanecarboxylic acid] | < 300

Continued, values first:

IC50 [nM] | Compound
< 300 | Cc1noc(-c2ccc(-c3ccc(C4(C(=O)O)CC4)cc3)cc2)c1C(O)c1cccc(-c2ccccc2)n1 (stereo not drawn) [Compound 1-110, 1-(4′-{4-[Hydroxy-(6-phenyl-pyridin-2-yl)-methyl]-3-methyl-isoxazol-5-yl}-biphenyl-4-yl)-cyclopropanecarboxylic acid]
< 300 | Cc1noc(-c2ccc(-c3ccc(C4(C(=O)O)CC4)cc3)cc2)c1Nc1cncc(-c2ccccc2Cl)c1 [Compound 1-113, 1-(4′-{4-[5-(2-Chloro-phenyl)-pyridin-3-ylamino]-3-methyl-isoxazol-5-yl}-biphenyl-4-yl)-cyclopropanecarboxylic acid]
< 300 | Cc1noc(-c2ccc(-c3ccc(C4(C(=O)O)CC4)cc3)cc2)c1Nc1ccnc(-c2ccccc2Cl)c1 [Compound 1-114, 1-(4′-{4-[2-(2-Chloro-phenyl)-pyridin-4-ylamino]-3-methyl-isoxazol-5-yl}-biphenyl-4-yl)-cyclopropanecarboxylic acid]
< 300 | Cc1noc(-c2ccc(-c3ccc(C4(C(=O)O)CC4)cc3)cc2)c1Nc1nccc(-c2ccccc2)n1 [Compound 1-115, 1-{4′-[3-Methyl-4-(4-phenyl-pyrimidin-2-ylamino)-isoxazol-5-yl]-biphenyl-4-yl}-cyclopropanecarboxylic acid]
< 300 | Cc1noc(-c2ccc(-c3ccc(C4(C(=O)O)CC4)cc3)cc2)c1Nc1cc(-c2ccccc2)ccn1 [Compound 1-116, 1-{4′-[3-Methyl-4-(4-phenyl-pyridin-2-ylamino)-isoxazol-5-yl]-biphenyl-4-yl}-cyclopropanecarboxylic acid]
< 300 | Cc1noc(-c2ccc(-c3ccc(C4(C(=O)O)CC4)cc3)cc2)c1Nc1cccc(-c2ccccc2CN(C)C)c1 [Compound 1-117, 1-{4′-[4-(2′-Dimethylaminomethyl-biphenyl-3-ylamino)-3-methyl-isoxazol-5-yl]-biphenyl-4-yl}-cyclopropanecarboxylic acid]
< 300 | Cc1noc(-c2ccc(-c3ccc(C4(C(=O)O)CC4)cc3)cc2)c1Nc1cncc(-c2cccc(C(F)(F)F)c2)c1 [Compound 1-118, 1-(4′-{3-Methyl-4-[5-(3-trifluoromethyl-phenyl)-pyridin-3-ylamino]-isoxazol-5-yl}-biphenyl-4-yl)-cyclopropanecarboxylic acid]
< 300 | Cc1noc(-c2ccc(-c3ccc(C4(C(=O)O)CC4)cc3)cc2)c1Nc1cncc(-c2ccc(C(F)(F)F)cc2)c1 [Compound 1-119, 1-(4′-{3-Methyl-4-[5-(4-trifluoromethyl-phenyl)-pyridin-3-ylamino]-isoxazol-5-yl}-biphenyl-4-yl)-cyclopropanecarboxylic acid]
< 300 | Cc1noc(-c2ccc(-c3ccc(C4(C(=O)O)CCC4)cc3)cc2)c1Nc1cccc(-c2ccccc2)n1 [Compound 1-122, 1-{4′-[3-Methyl-4-(6-phenyl-pyridin-2-ylamino)-isoxazol-5-yl]-biphenyl-4-yl}-cyclobutanecarboxylic acid]
< 300 | Cc1noc(-c2ccc(-c3ccc(C4(C(=O)O)CC4)cc3)cc2)c1Nc1cccc(-n2cccn2)n1 [Compound 1-123, 1-{4′-[3-Methyl-4-(6-pyrazol-1-yl-pyridin-2-ylamino)-isoxazol-5-yl]-biphenyl-4-yl}-cyclopropanecarboxylic acid]
< 300 | Cc1noc(-c2ccc(-c3ccc(C4(C(=O)O)CC4)cc3)cc2)c1Nc1cccc(N2CCOCC2)n1 [Compound 1-124, 1-{4′-[3-Methyl-4-(6-morpholin-4-yl-pyridin-2-ylamino)-isoxazol-5-yl]-biphenyl-4-yl}-cyclopropanecarboxylic acid]
< 300 | Cc1noc(-c2ccc(-c3ccc(C4(C(=O)O)CC4)cc3)cc2)c1Nc1cccc(OCc2ccccc2)n1 [Compound 1-125, 1-{4′-[4-(6-Benzyloxy-pyridin-2-ylamino)-3-methyl-isoxazol-5-yl]-biphenyl-4-yl}-cyclopropanecarboxylic acid]
